Measured values reported in patent publication US20250115569A1, “SULFONAMIDE COMPOUNDS FOR THE TREATMENT OF NEUROLOGICAL CONDITIONS” (LARIO THERAPEUTICS LIMITED, priority 2021, published 2025).

system: Human Cav2.3 channel; assay: Human Cav2.3 channel calcium-influx assay; format: cell-based; settings: Fluo8 fluorescence, HEK-293 T-Rex/Kir2.1/Cav2.3e cells, without pluronic acid
Procedure, shortened: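 Signal = peak fluorescence (5–130 s) minus baseline (1–2 s), normalized to neutral (0) and inhibitor (−100) controls as % effect. Depolarization used final 20 mM KCl, 130 mM NaCl, 2 mM CaCl2, after 3 min RT compound exposure (30 μM top, half-log, 8 points, 0.3% DMSO) in doxycycline-induced HEK-293 T-Rex/Kir2.1/Cav2.3e-β4-α2δ1 cells with Fluo8 NW.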

Structure (SMILES)	Cav2.3 (pIC50)
CCN(C(c1ccc(F)cc1)C(F)(F)F)S(=O)(=O)c1cncnc1 [Example 60, (R)—N-ethyl-N-(2,2,2-trifluoro-1-(4-fluorophenyl)ethyl)pyrimidine-5-sulfonamide]	7.14
CN([C@@H](CF)c1ccc(Cl)cc1)S(=O)(=O)c1cncc(C#N)c1 [Example 213, (R)—N-(1-(4-chlorophenyl)-2-fluoroethyl)-5-cyano-N-methylpyridine-3-sulfonamide]	6.07
CN(C(c1ccc(F)cc1)C(F)(F)F)S(=O)(=O)c1cncnc1 (centres unmarked) [Example 58, N-methyl-N-(2,2,2-trifluoro-1-(4-fluorophenyl)ethyl)pyrimidine-5-sulfonamide]	6.35
CN([C@H](c1ccc(Cl)cc1)C(F)F)S(=O)(=O)c1cncc(C#N)c1 [Example 206, (R)—N-(1-(4-chlorophenyl)-2,2-difluoroethyl)-5-cyano-N-methylpyridine-3-sulfonamide]	6.60
CCN(C(c1ccc(F)cc1)C(F)(F)F)S(=O)(=O)c1ccc(C)s1 (centres unmarked) [Example 8, N-ethyl-5-methyl-N-(2,2,2-trifluoro-1-(4-fluorophenyl)ethyl)thiophene-2-sulfonamide]	5.53
CCN(C(c1ccc(F)cc1)C(F)(F)F)S(=O)(=O)c1cncnc1 (centres unmarked) [Example 57, N-ethyl-N-(2,2,2-trifluoro-1-(4-fluorophenyl)ethyl)pyrimidine-5-sulfonamide]	6.96
CCN(C(c1ccc(F)cc1)C(F)(F)F)S(=O)(=O)c1ccc(C2=CCOCC2)s1 (centres unmarked) [Example 87, 5-(3,6-Dihydro-2H-pyran-4-yl)-N-ethyl-N-(2,2,2-trifluoro-1-(4-fluorophenyl)ethyl)thiophene-2-sulfonamide]	5.50
Cc1ccc(S(=O)(=O)N(C)[C@@H](c2ccc(F)cc2)C(F)(F)F)s1 [Example 12, (S)—N,5-dimethyl-N-(2,2,2-trifluoro-1-(4-fluorophenyl)ethyl)thiophene-2-sulfonamide]	5.00
CCN([C@H](c1ccc(F)cc1)C(F)(F)F)S(=O)(=O)c1cccc(C)n1 [Example 33, (R)—N-ethyl-6-methyl-N-(2,2,2-trifluoro-1-(4-fluorophenyl)ethyl)pyridine-2-sulfonamide]	6.30
CCN([C@H](c1ccc(F)cc1)C(F)(F)F)S(=O)(=O)c1ccc2cnn(C)c2c1 [Example 160, (R)—N-ethyl-1-methyl-N-(2,2,2-trifluoro-1-(4-fluorophenyl)ethyl)-1H-indazole-6-sulfonamide]	6.06
CCN(C(c1ccc(F)cc1)C(F)(F)F)S(=O)(=O)c1sc(C#N)cc1C (centres unmarked) [Example 45, 5-Cyano-N-ethyl-3-methyl-N-(2,2,2-trifluoro-1-(4-fluorophenyl)ethyl)thiophene-2-sulfonamide]	6.07
CCN([C@H](c1ccc(F)cc1)C(F)(F)F)S(=O)(=O)c1cc2nncn2cn1 [Example 152, (R)—N-ethyl-N-(2,2,2-trifluoro-1-(4-fluorophenyl)ethyl)-[1,2,4]triazolo[4,3-c]pyrimidine-7-sulfonamide]	6.51
CCN([C@@H](c1ccc(F)cc1)C(F)(F)F)S(=O)(=O)c1cncnc1 [Example 59, (S)—N-ethyl-N-(2,2,2-trifluoro-1-(4-fluorophenyl)ethyl)pyrimidine-5-sulfonamide]	5.21
CCN([C@H](c1ccc(Cl)cc1)C(F)(F)F)S(=O)(=O)c1cncnc1 [Example 134, (R)—N-(1-(4-chlorophenyl)-2,2,2-trifluoroethyl)-N-ethylpyrimidine-5-sulfonamide]	7.65
CN([C@H](c1ccc(F)cc1)C(F)(F)F)S(=O)(=O)c1ccc2c(c1)OC(F)(F)O2 [Example 163, (R)-2,2-difluoro-N-methyl-N-(2,2,2-trifluoro-1-(4-fluorophenyl)ethyl)benzo[d][1,3]dioxole-5-sulfonamide]	5.76
CN([C@@H](c1ccc(F)cc1)C(F)(F)F)S(=O)(=O)c1ccc(C#N)s1 [Example 7, (S)-5-cyano-N-methyl-N-(2,2,2-trifluoro-1-(4-fluorophenyl)ethyl)thiophene-2-sulfonamide]	5.44
CCN([C@H](c1ccc(C(F)(F)F)cc1)C(F)(F)F)S(=O)(=O)c1cnc2cccnn12 [Example 212, (R)—N-ethyl-N-(2,2,2-trifluoro-1-(4-(trifluoromethyl)phenyl)ethyl)imidazo[1,2-b]pyridazine-3-sulfonamide]	6.80

Further lines, results first:

Cav2.3 (pIC50)	Structure (SMILES)
5.38	CCN([C@@H](c1ccccc1F)C(F)(F)F)S(=O)(=O)c1cncc(C#N)c1 [Example 117, (S)-5-cyano-N-ethyl-N-(2,2,2-trifluoro-1-(2-fluorophenyl)ethyl)pyridine-3-sulfonamide]
5.11	CCN([C@@H](c1ccccc1C(F)(F)F)C(F)(F)F)S(=O)(=O)c1cncc(C#N)c1 [Example 247, (S)-5-cyano-N-ethyl-N-(2,2,2-trifluoro-1-(2-(trifluoromethyl)phenyl)ethyl)pyridine-3-sulfonamide]
5.19	CCN(C(c1ccc(F)cc1F)C(F)(F)F)S(=O)(=O)c1cncc(C#N)c1 (centres unmarked) [Example 243, 5-cyano-N-(1-(2,4-difluorophenyl)-2,2,2-trifluoroethyl)-N-ethylpyridine-3-sulfonamide]
6.80	CCN(C(c1cccc(OC)c1)C(F)(F)F)S(=O)(=O)c1cncc(C#N)c1 (centres unmarked) [Example 71, 5-Cyano-N-ethyl-N-(2,2,2-trifluoro-1-(3-methoxyphenyl)ethyl)pyridine-3-sulfonamide]
7.51	CCN([C@H](c1ccc(C)cc1)C(F)(F)F)S(=O)(=O)c1cncc(C#N)c1 [Example 106, (R)-5-Cyano-N-ethyl-N-(2,2,2-trifluoro-1-(p-tolyl)ethyl)pyridine-3-sulfonamide]
7.33	CCN([C@H](c1ccc(F)c(Cl)c1)C(F)(F)F)S(=O)(=O)c1cncc(C#N)c1 [Example 254, (R)—N-(1-(3-chloro-4-fluorophenyl)-2,2,2-trifluoroethyl)-5-cyano-N-ethylpyridine-3-sulfonamide]
7.49	CCN(C(c1ccc(F)cc1)C(F)(F)F)S(=O)(=O)c1cncc(C#N)c1 (centres unmarked) [Example 26, 5-cyano-N-ethyl-N-(2,2,2-trifluoro-1-(4-fluorophenyl)ethyl)pyridine-3-sulfonamide]
5.84	CCN(C(c1ccc(F)cc1F)C(F)(F)F)S(=O)(=O)c1cncc(C#N)c1 (centres unmarked) [Example 244, 5-cyano-N-(1-(2,4-difluorophenyl)-2,2,2-trifluoroethyl)-N-ethylpyridine-3-sulfonamide]
7.31	CCN([C@H](c1ccc(F)c(C)c1)C(F)(F)F)S(=O)(=O)c1cncc(C#N)c1 [Example 246, (R)-5-cyano-N-ethyl-N-(2,2,2-trifluoro-1-(4-fluoro-3-methylphenyl)ethyl)pyridine-3-sulfonamide]
